Legend:
GRdEcR/RXR = molecular target: T1, GRdEcR/RXR (Drosophila melanogaster, UniProt P34021, E261P/P331L/Q260P/V259R); assay: GRdEcR (GEcEc) chimera with RXR, (EcRE)5-ΔMTV reporter in CHO cells; type: cell-based
T1 construct: ligation of a Not I-Bam HI fragment containing the DBD and LBD of a modified EcR cDNA, EcRnx; expressed in transfected cells; host or cells: CHO
T1 sequence (P34021 259-878 V259R/Q260P/E261P/P331L limits assumed): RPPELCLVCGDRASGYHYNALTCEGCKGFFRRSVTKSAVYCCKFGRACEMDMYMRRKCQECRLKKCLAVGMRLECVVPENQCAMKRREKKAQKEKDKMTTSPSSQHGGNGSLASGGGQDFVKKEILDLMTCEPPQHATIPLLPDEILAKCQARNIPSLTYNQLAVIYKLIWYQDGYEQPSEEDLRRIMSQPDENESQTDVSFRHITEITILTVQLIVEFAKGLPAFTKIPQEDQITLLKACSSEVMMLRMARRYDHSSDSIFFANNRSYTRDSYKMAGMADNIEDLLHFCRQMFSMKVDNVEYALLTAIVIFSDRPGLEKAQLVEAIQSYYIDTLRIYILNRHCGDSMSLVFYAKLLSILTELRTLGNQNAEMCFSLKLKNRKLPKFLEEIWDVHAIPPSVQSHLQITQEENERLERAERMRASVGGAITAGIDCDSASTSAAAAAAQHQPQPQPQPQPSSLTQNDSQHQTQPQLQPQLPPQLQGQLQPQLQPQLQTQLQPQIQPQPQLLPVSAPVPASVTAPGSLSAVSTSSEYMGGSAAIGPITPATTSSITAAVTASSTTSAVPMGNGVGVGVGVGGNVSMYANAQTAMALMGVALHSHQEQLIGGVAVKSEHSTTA
T1 sequence (P28700 1-467 partner): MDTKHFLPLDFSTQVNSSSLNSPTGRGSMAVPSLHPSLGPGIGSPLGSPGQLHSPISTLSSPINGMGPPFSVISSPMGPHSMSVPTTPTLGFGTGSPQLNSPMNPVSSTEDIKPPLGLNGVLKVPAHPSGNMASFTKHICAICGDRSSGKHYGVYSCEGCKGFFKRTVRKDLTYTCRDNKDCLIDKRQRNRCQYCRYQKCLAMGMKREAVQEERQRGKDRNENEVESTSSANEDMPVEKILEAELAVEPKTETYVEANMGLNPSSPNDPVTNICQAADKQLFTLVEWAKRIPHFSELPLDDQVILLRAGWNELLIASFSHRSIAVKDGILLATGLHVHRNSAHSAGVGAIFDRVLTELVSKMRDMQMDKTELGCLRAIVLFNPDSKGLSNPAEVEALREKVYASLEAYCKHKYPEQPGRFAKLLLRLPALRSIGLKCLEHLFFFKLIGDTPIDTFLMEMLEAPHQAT
Procedure: (§1) These experiments employed a mammalian cell culture system using Chinese hamster ovary cells (CHO) to evaluate the transcriptional function of Drosophila melanogaster EcR and USP using methods described previously (U.S. Patent Application Publication No: 2005/0049230; Henrich et al, 2003). Cells were seeded in 6-well polypropylene culture plates (Falcon) with 10^5 cells per well on the day prior to transfection. Transfection was subsequently performed using either calcium phosphate (Kitareewan et al., 1996, Mol. Biol. Cell, 7:1153-1196) or a GenePorter reagent (Gene Therapy Systems, Inc; San Diego, Calif.) following manufacturer's protocols. Each well received 1.25 μg of (EcRE)5-ΔMTV-CAT (five copies of the hsp27 EcRE inserted into an mouse mammary tumor virus (MTV) promoter upstream of the chloramphenicol acetyltransferase (CAT) gene) or (EcRE)5-ΔMTV-LUC (the same promoter attached to firefly luciferase), 1.25 μg of pCH111 (SV40 early promoter linked to the β-galactosidase gene) to normalize CAT activity, and 0.25 μg of each expression plasmid (EcR, FXR, RXR, USP) that was tested. The cells were incubated with plasmid DNA for seven hours and then washed with 1×PBS. Muristerone A (murA; Alexis Biochemicals) or 20-hydroxyecdysone (20E; Sigma) dissolved in ethanol to a concentration of 10 mM was diluted as necessary to the final assay concentration (FAC) in 2 ml of fresh incubation medium that was then applied to the cells. Similarly, JHIII (Sigma) was dissolved in dimethyl sulfoxide (DMSO) to a concentration of […] and diluted into the incubation medium to its final assay concentration (20, 40, 80, 160 μM). […] A corresponding volume of ethanol and DMSO were added to control cells for all experiments. For all experiments, the cells were allowed to incubate with the medium for 24 hours before collection and cell lysates were prepared by described methods (Kitareewan et al., 1996). Both β-galactosidase and CAT reporter activity were measured based on previously used methods (Kitareewan et al, 1996). Luciferase assays using luciferrin followed the specifications of the manufacturer.
(§2) Transcriptional activity, measured as ^14C-chloramphenicol counts (for measuring CAT activity) or relative luciferase activity (RLU) was quantified for each cell lysate. The counts were then normalized by adjusting for differences in β-galactosidase activity, since β-galactosidase expression is controlled by a constitutive promoter and provides an estimate of cell mass. Data were normalized as fold-induction based on differences in reporter gene activity between hormonally treated and control cells.
In an initial series of studies, a GRdEcR chimera that consists of the rat glucocorticoid receptor (GR) activation domain attached to the EcR DBD and LBD (FIG. 1) was cotransfected along with mRXRα into CHO cells. The response of transfected cells to murA was measured using a (EcRE)5-ΔMTV-CAT reporter plasmid that carries five tandem repeats of the hsp27 EcRE linked to the MTV (mouse mammary tumor virus) promoter and the chloramphenicol acetyltransferase gene (CAT).
The prominent candidate for this JH-responsive macromolecule in insects is the structurally-related ecdysone receptor (EcR). Like FXR, EcR heterodimerizes with RXR and binds to the hsp27 ecdysone-responsive DNA element (Forman et al., 1995), but distinctively activates transcription in response to muristerone A (MurA or MUR), a synthetic ecdysone (Yao et al., 1992). […] In the experiments shown in FIG. 15A, muristerone A (MUR) was added at the indicated doses in ethanol vehicle, and increasing amounts of JH III (12, 25, or 50 μM) were added (underlying triangles). Numbers over bars indicate the ratio of the GEcEc-dependent activity produced by 50 μM JH III in the presence of the indicated dose of MUR to the activity produced by MUR alone. Relative light units (RLU) from firefly luciferase in cell lysates are expressed relative to renilla luciferase (Promega).

FXR = molecular target: T2, FXR (Rattus norvegicus, UniProt Q62735); assay: cell-based
T2 sequence (Q62735 1-469): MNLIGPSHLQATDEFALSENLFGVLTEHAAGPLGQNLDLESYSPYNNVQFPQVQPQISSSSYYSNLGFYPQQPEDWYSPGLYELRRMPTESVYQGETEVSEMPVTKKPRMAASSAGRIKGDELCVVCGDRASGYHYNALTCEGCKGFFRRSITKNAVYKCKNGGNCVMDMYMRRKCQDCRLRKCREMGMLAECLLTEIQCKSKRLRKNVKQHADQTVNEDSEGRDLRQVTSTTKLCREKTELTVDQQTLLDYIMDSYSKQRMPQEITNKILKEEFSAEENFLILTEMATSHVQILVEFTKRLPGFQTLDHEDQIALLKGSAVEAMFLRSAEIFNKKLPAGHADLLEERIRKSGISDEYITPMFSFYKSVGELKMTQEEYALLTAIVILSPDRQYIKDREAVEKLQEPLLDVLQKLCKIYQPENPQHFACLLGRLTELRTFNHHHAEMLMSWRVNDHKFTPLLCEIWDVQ
T2 sequence (P28700 1-467 partner): T1 sequence (P28700 1-467 partner)
Procedure: as §1, §2
In these experiments, candidate juvenoids were tested for their ability to activate FXR mediated transcription by transfecting Chinese hamster ovary (CHO) cells using the FXR plasmid, mouse RXRα, and the ΔMTV-(EcRE)5-CAT reporter as described herein. An RXR-dependent CRBPII-CAT reporter plasmid was employed in parallel assays to discern activators specific for this receptor.

insect = conditions: from Schneiderman and Gilbert, Science 143; cited from earlier work
[1] = final dose of 50 ∝M, 1 = induction less than 2-fold below cytotoxic doses
[2] = dose 100 μM, 1 = no increase over vehicle

Molecule: C[C@H](CCC(=O)O)[C@H]1CC[C@H]2[C@@H]3[C@H](O)C[C@@H]4C[C@H](O)CC[C@]4(C)[C@H]3CC[C@]12C [CDCA, chenodeoxycholic acid]
- induction of GEcEc (GRdEcR/RXR; data not shown): did not induce

Molecule: CC(C)=CCCC(C)=CCCC(C)=CC=O [farnesal]
- FXR-dependent CAT activity, induction (FXR; 50 μM): 2 fold
- FXR ACTIVITY (fold-induction) (FXR; [1]): 2 fold-induction
- JH ACTIVITY (units/g) (insect): 32 units/g

Molecule: CC(C)=CCC/C(C)=C/CC/C(C)=C/CO [farnesol, all-trans farnesol]
- JH ACTIVITY (units/g) (insect): 140 units/g
- increase in GEcEc activity over that provided by MUR alone (GRdEcR/RXR; 45 μM farnesol with MUR): 4 fold

Molecule: CC(=O)OCC=C(C)CCC=C(C)CCC=C(C)C [farnesyl acetate]
- JH ACTIVITY (units/g) (insect): 5.4 units/g

Molecule: CC(C)=CCC/C(C)=C/CO [geraniol]
- FXR-dependent activity, induction (FXR; dose not stated): neither the monoterpenes linalool (200 μM) nor geraniol were effective
- FXR ACTIVITY (fold-induction) (FXR; [1]): 1 fold-induction
- JH ACTIVITY (units/g) (insect): 0 units/g

Molecule: CC(C)CCCC(C)CCCC(C)CCO (centres unmarked) [hexahydrofarnesol]
- JH ACTIVITY (units/g) (insect): 0 units/g

Molecule: C=CC(C)(O)CCCC(C)CCCC(C)CCCC(C)C (centres unmarked) [isophytol]
- JH ACTIVITY (units/g) (insect): 0 units/g

Molecule: C=CC(C)(O)CCC=C(C)C (centres unmarked) [linalool]
- JH ACTIVITY (units/g) (insect): 0.08 units/g

Molecule: C/C(=C\CO)CCC[C@H](C)CCC[C@H](C)CCCC(C)C [phytol]
- FXR-dependent CAT activity, induction (FXR; 50 μM): three times
- FXR ACTIVITY (fold-induction) (FXR; [1]): 3 fold-induction
- JH ACTIVITY (units/g) (insect): 32 units/g

Molecule: c1cc2c(cc1[C@H]1OC[C@H]3[C@@H]1CO[C@@H]3c1ccc3c(c1)OCO3)OCO2 [sesamin]
- FXR-dependent activity, induction (FXR; 100 μM): 12 fold
- FXR ACTIVITY (fold-induction) (FXR; [2]): 12 fold-induction
- potentiation of MUR-inducible GEcEc-dependent activity (GRdEcR/RXR; 25 μM test compound, 0.2 μM muristerone A): between two and four times

Molecule: COc1cc(C2Oc3cc([C@H]4Oc5cc(O)cc(O)c5C(=O)[C@@H]4O)ccc3OC2CO)ccc1O (some centres unmarked) [silybin]
- FXR-dependent CAT activity, induction (FXR; 50 μM): 18 fold
- FXR ACTIVITY (fold-induction) (FXR; [2]): 10 fold-induction

Molecule: CC(C)=CCC/C(C)=C/CC/C(C)=C/CC/C(C)=C/CC/C(C)=C/CC/C(C)=C/CC/C(C)=C/CC/C(C)=C/CC/C(C)=C/CO [solanesol]
- JH ACTIVITY (units/g) (insect): 0.05 units/g

Molecule: COc1ccc(-c2cc(=O)c3c(OC)c(OC)c(OC)c(OC)c3o2)cc1 [tangeretin]
- FXR-dependent CAT activity, induction (FXR; 50 μM): 4 fold

Molecule: O=C1c2c(O)cc(O)cc2O[C@H](c2ccc(O)c(O)c2)[C@H]1O [taxifolin]
- FXR-dependent CAT activity, induction (FXR; 50 μM): unresponsive

Molecule: Clc1cc2c(cc1Cl)Oc1cc(Cl)c(Cl)cc1O2 [tetrachloro- dibenzo-p- dioxin, 2,3,7,8-tetrachlorodibenzo-p-dioxin]
- FXR-dependent CAT activity, induction (FXR; 100 nM): 15 fold
- FXR ACTIVITY (fold-induction) (FXR; dose 0.1 μM): 15 fold-induction

Molecule: Cn1cnc2c1c(=O)[nH]c(=O)n2C [theobromine]
- FXR-dependent activity, induction (FXR; dose not stated): ineffective

Molecule: O=c1[nH]c(=O)c2[nH]cnc2[nH]1 [xanthine]
- FXR-dependent activity, induction (FXR; dose not stated): ineffective

Molecule: CC(=O)/C=C/C1C(C)=CCCC1(C)C (stereo not drawn) [α-ionone]
- FXR ACTIVITY (fold-induction) (FXR; dose 150 μM): 10 fold-induction

Molecule: CC1=CCC(C(C)(C)O)CC1 (stereo not drawn) [α-terpineol]
- FXR-dependent activity, induction (FXR; 800 μM): two-fold
- FXR ACTIVITY (fold-induction) (FXR; dose 400 μM): 402 fold-induction

Molecule: C[C@H]1[C@H](C)CC[C@]2(C)CC[C@]3(C)C(=CC[C@@H]4[C@@]5(C)CC[C@@H](O)[C@](C)(C(=O)O)[C@@H]5CC[C@]43C)[C@H]12 [β-boswellic acid]
- FXR-dependent activity, induction (FXR; 25 μM): 11 fold
- FXR ACTIVITY (fold-induction) (FXR; dose 25 μM): 11 fold-induction

Molecule: CC(=O)/C=C/C1=C(C)CCCC1(C)C [β-ionone]
- FXR ACTIVITY (fold-induction) (FXR; dose 150 μM): 10 fold-induction

Molecule: CC(C)=CCC/C(C)=C/CC/C(C)=C/CC[C@]1(C)CCc2cc(O)c(C)c(C)c2O1 [γ-tocotrienol]
- FXR ACTIVITY (fold-induction) (FXR; dose 20 μM, 1 = no increase over vehicle): 1 fold-induction

Molecule: aroclor 1254
- FXR-dependent CAT activity, induction (FXR; 5 μM): 5 fold

Molecule: geranyl linalool
- JH ACTIVITY (units/g) (insect): 0.14 units/g

Molecule: toxaphenes
- FXR-dependent CAT activity, induction (FXR; 5 μM): 9 fold

Reference: patent publication US8637237B2, “Methods, compositions, and systems for the identification of species-specific or developmental stage-specific insecticides” (The University of North Carolina at Greensboro, priority 2003, dated 2014)
